Consider one compound from US12582628B2, “Methods for treating breast cancer” (Olatec Therapeutics, Inc., priority 2019, dated 2026).

Read-outs that look alike come from different tables or passages of the source.

Series [1] concerns 4T1 TNBC. Kind of series: 4T1 TNBC orthotopic tumor model (tumor volume, survival). It is filed as in vivo, mice (BALB/c). How it is done: Tumor Model. Animal protocols were approved by the University of Colorado Health Sciences Center Animal Care and Use Committee. Female BALB/c mice, 6-8 weeks old (The Jackson Laboratory), were fed standard or dapansutrile (OLT1177®) diet (4), which was started on the day of 4T1 injection. 4T1 cells (2×10^5) were injected orthotopically into the mammary fat pad. Mice treated with dapansutrile were fed ad libidum with food pellets containing 7.5 g/kg dapansutrile, which started on the day of the 4T1 injection and continued for 15 days. Mice typically consume about 4 g of food per day, resulting in an approximate daily dose of 0 mg/kg/day for control groups and 1,000 mg/kg/day for the treatment groups. […] Control (“vehicle”) mice were fed with control food pellets without dapansutrile. Mice were sacrificed following 15 days after 4T1 injection.
Anti-PD-1 Combination Therapy. 4T1 cells were injected as described. After instillation of 4T1 cells, mice were started on dapansutrile (OLT1177®) diet or continued on standard diet as described and at day seven a neutralizing antibody against PD-1 (200 μg/mouse; BioXCell, West Lebanon, NH) was injected peritoneally. Mice were sacrificed following 15 days from the […] instillation.
Anti-IL-1α Combination Therapy. 4T1 cells were injected as described. After instillation of 4T1 cells, mice were started on dapansutrile (OLT1177®) diet or continued on standard diet as described and every three days a neutralizing antibody against anti-IL-1α (200 μg/mouse; XBioTech, Austin, TX) was injected peritoneally. Mice were sacrificed following 15 days from the […] instillation.
4T1 TNBC mice were generated and fed a standard diet or a dapansutrile diet for 15 days. Tumors were measured on indicated days to generate a growth curve (FIG. 1C). Final tumor volume was taken following resection of the tumors (FIG. 1B).
To further assess the roles of IL-1α and IL-1β in driving 4T1 tumor progression, inventors treated mice with anti-IL-1α (200 μg/mouse), dapansutrile diet, and a combination of both. 4T1 TNBC mice were generated and fed a standard diet or a dapansutrile diet for 15 days. Mice were injected with anti-IL1α every 3 days as indicated. Subsequently, tumor volume was analyzed.
4T1 TNBC mice were generated and fed a standard diet or a dapansutrile diet for 15 days. Mice receiving a combination therapy were injected with anti-PD-1 on day 7 as indicated (FIG. 3A).

For series [2], the system named is TSLP. Kind of series: Gene expression (qPCR) in primary 4T1 tumors: TSLP. It is filed as in vivo, mice. The note with it: dapansutrile diet vs vehicle (FIG. 2D). How it is done:
(§1) Gene Expression. RNA was then isolated using Trizol (Thermo Fisher Scientific) and synthesized in cDNA using SuperScript III First-Strand (Thermo Fisher Scientific). Quantitative PCR (qPCR) was performed on cDNA using Power SYBR Green PCR master mix (Thermo Fisher Scientific) on Biorad CFX96 Real time system. Gene expression was assessed for Tslp, Tslpr, and Pdcd-11L1 mRNAs as indicated using the following primers: […]
(§2) Tumor Model. Animal protocols were approved by the University of Colorado Health Sciences Center Animal Care and Use Committee. Female BALB/c mice, 6-8 weeks old (The Jackson Laboratory), were fed standard or dapansutrile (OLT1177®) diet (4), which was started on the day of 4T1 injection. 4T1 cells (2×10^5) were injected orthotopically into the mammary fat pad. […]
(§3) Previous studies on the tumor-myeloid cell interactions in triple-negative breast cancer indicate that tumor-derived IL-1α promotes infiltrating myeloid cells to secrete TSLP (thymic stromal lymphopoietin), which in turn is critical for tumor progression at both primary and distant metastatic sites (15). To further evaluate the effects of blocking NLRP3 in 4T1 tumor progression, inventors quantified gene expression of TSLP and its associated receptor TSLPR in primary 4T1 tumors as measured by relative mRNA expression. […]

Series [3] has as its system TSLPR. Kind of series: Gene expression (qPCR) in primary 4T1 tumors: TSLPR. It counts as in vivo, mice. The note with it: dapansutrile diet vs vehicle (FIG. 2E). How it is done: as §1, §2, §3
Series [4] concerns TSLP. Kind of series: TSLP mRNA expression in IL-1α-stimulated MDA-468 cells. To be noted: IL-1α 20 ng/mL, dapansutrile 10 μM, 24 hours, vs control (FIG. 2F). It counts as cell-based, human. How it is done:
(§4) Cell Lines. The mammary carcinoma cell lines 4T1, E0771, and MDA-468 were obtained from ATCC (Manassas, VA). Cells were cultured in DMEM supplemented with 10% FBS, 100 units/mL penicillin, 0.1 mg/ml streptomycin. Cells were maintained in a humidified 5% CO2 atmosphere at 37° C.
(§5) In vitro. Tumor cell lines were adhered overnight at a concentration of 200,000 per well. The following day human recombinant IL-1α or IL-1β (R&D Systems, Minneapolis, MN) were added with or without dapansutrile (OLT1177®) and incubated for 24 hours. Cells were then lysed using TRIzol reagent (Thermo Fisher Scientific, Waltham, MA).
(§6) Gene Expression. […] Quantitative PCR (qPCR) was performed on cDNA using Power SYBR Green PCR master mix (Thermo Fisher Scientific) on Biorad CFX96 Real time system. Gene expression was assessed for Tslp, Tslpr, and Pdcd-11L1 mRNAs as indicated using the following primers: […]
as §3

In series [5] the test system is TSLPR. Kind of series: TSLPR mRNA expression in IL-1α-stimulated MDA-468 cells. It is filed as cell-based, human. The note with it: IL-1α 20 ng/mL, dapansutrile 10 μM, 24 hours, vs control (FIG. 2G). How it is done:
as §4, §5, §6, §3

For series [6], the system named is PD-L1. Kind of series: Gene expression (qPCR) in 4T1 tumors: PD-L1. It counts as in vivo, mice. The note with it: dapansutrile diet vs standard diet (FIG. 3D). How it is done: as §1
Tumor Model. Animal protocols were approved by the University of Colorado Health Sciences Center Animal Care and Use Committee. Female BALB/c mice, 6-8 weeks old (The Jackson Laboratory), were fed standard or dapansutrile (OLT1177®) diet (4), which was started on the day of 4T1 injection. 4T1 cells (2×10^5) were injected orthotopically into the mammary fat pad. Mice treated with dapansutrile were fed ad libidum with food pellets containing 7.5 g/kg dapansutrile, which started on the day of the 4T1 injection and continued for 15 days. Mice typically consume about 4 g of food per day, resulting in an approximate daily dose of 0 mg/kg/day for control groups and 1,000 mg/kg/day for the treatment groups. […] Control (“vehicle”) mice were fed with control food pellets without dapansutrile. Mice were sacrificed following 15 days after 4T1 injection. […]
On the technique in general: Quantitative PCR measures a nucleic acid by following its amplification.

Series [7] relates to PD-L1. Kind of series: PD-L1 mRNA expression in IL-1α-stimulated E0771 cells. The note with it: IL-1α 10 ng/mL, dapansutrile vs vehicle (FIG. 3E). It counts as cell-based, murine. How it is done:
as §4, §5, §1
In vitro analysis of the murine triple-negative breast cancer cell line E0771 was conducted to examine the effects of dapansutrile on PD-L1 expression levels following cell death signaling. IL-1α stimulation was used to simulate cell death signaling in the tumor-microenvironment. […]

Series [8] deals with IL-22. Kind of series: Splenocyte cytokine secretion (ELISA): IL-22. It is filed as in vivo. The note with it: splenocytes of 4T1 tumor-bearing mice, LPS 10 μg/mL, 72 hours, vs vehicle (FIG. 4B). How it is done: (§7) Splenocyte Cytokine Secretion. 4T1 cells were injected as described. Spleens from tumor-bearing mice were processed for cell culture through mechanical dissociation. Cells suspended in RPMI supplemented with 10% FBS, 100 units/mL penicillin, 0.1 mg/ml streptomycin and were plated at 5.0e^5 and stimulated with 10 μg/mL LPS. After 72 hours, supernatants were removed and cytokines were measured via ELISA (R&D Systems, Minneapolis, MN).
(§8) In this Example, 4T1 TNBC mice were generated and fed a standard diet or a dapansutrile diet for 15 days.
On the technique in general: In an ELISA, binding on a coated surface is turned into a signal by an enzyme label.

For series [9], the system named is IFNγ. Kind of series: Splenocyte cytokine secretion (ELISA): IFNγ. It counts as in vivo. The note with it: splenocytes of 4T1 tumor-bearing mice, LPS 10 μg/mL, 72 hours, vs vehicle (FIG. 4C). How it is done: as §7, §8
For series [10] the following is noted: humans treated orally at 1000 mg/day; cited from earlier work.
For series [11] the following is noted: mice, 7.5 g/kg dapansutrile in food (about 1,000 mg/kg/day); nearly the same as human level; cited from earlier work.
The conditions of series [12]: orally administered to healthy subjects; cited from earlier work.
The target in series [13] is NLRP3 inflammasome (Homo sapiens, UniProt Q96P20). The note with it: cited from earlier work.
Chain of NLRP3 inflammasome (Q96P20 whole entry): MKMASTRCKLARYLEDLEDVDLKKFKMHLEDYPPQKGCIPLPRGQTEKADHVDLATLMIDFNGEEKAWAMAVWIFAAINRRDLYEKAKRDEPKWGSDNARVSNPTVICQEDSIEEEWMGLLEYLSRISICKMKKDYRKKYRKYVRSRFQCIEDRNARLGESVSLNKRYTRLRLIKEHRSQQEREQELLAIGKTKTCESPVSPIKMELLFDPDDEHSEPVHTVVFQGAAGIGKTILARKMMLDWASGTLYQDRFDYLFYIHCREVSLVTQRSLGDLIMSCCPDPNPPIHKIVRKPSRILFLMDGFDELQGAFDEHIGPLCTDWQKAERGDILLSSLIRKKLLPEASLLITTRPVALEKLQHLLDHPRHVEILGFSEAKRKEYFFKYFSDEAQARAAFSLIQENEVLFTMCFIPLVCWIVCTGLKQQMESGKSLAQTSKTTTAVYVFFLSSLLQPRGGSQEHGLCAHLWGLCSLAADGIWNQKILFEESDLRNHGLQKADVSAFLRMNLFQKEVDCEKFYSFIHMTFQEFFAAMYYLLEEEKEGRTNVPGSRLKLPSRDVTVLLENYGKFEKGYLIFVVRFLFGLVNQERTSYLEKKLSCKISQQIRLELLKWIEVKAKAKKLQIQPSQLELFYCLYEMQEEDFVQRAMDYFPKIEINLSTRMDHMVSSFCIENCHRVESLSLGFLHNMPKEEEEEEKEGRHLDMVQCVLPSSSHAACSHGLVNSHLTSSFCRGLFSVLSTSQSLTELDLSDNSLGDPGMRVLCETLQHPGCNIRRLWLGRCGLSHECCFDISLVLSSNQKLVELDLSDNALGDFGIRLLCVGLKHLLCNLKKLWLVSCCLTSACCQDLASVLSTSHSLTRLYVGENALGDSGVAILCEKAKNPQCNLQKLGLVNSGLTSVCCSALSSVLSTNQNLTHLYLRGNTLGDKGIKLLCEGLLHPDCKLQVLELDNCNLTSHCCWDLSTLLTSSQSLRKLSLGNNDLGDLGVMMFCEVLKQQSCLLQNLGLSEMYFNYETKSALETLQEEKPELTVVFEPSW

As for `CS(=O)(=O)CCC#N` [dapansutrile, 3-methanesulfonyl-propionitrile], the “mice surviving beyond 30 days” value in [1] (Example 1, 4T1 TNBC mice on dapansutrile diet) is “half”. Moreover, the tumor volume entry in series [1] (Example 1, 4T1 TNBC mice, dapansutrile diet 15 days vs standard diet, after resection (FIG. 1B)) was “significantly decreased tumor volume”; in series [1] (Example 3, 4T1 TNBC mice, day 15 after resection, dapansutrile diet and/or anti-PD-1 200 μg/mouse on day 7, vs vehicle (FIG. 3B)), “significant tumor reduction”. Further, the survival rates entry in [1] (Example 1, 4T1 TNBC mice, dapansutrile diet vs standard diet (FIG. 1D, n=10)) is reported as “significantly higher survival rates”. The tumor volumes result in [1] (Example 2, 4T1 TNBC mice, 15 days, dapansutrile diet and/or anti-IL-1α 200 μg/mouse every 3 days, vs vehicle (FIGS. 2B, 2C)) is “significantly reduced tumor volumes”. The “TSLP expression (relative mRNA)” value in [2] and in series [4] was “significantly lower” each time. The “TSLPR expression (relative mRNA)” value in series [3] and in [5] was “significantly lower” throughout. Moreover, the “PD-L1 gene expression (relative mRNA)” value in series [6] is listed as “significantly less”. In addition, the “PD-L1 expression (relative mRNA)” value in series [7] is recorded as “markedly lower”. The IL-22 levels entry in [8] is on record as “significantly reduced IL-22 levels”. Moreover, the IFNγ levels entry in series [9] is on record as “increased”. Further, the figures for the blood level in series [10] and in [11] were 40000 ng/mL and around 40000 ng/mL, respectively. Further, in series [12], the safety result is “safe”. In [13], the NLRP3 inflammasome inhibition entry was “selectively inhibit”.
